In brackets after ≈: the same amount, converted by molar mass.
Experiments:
[1] = test system: Trichophyton benhamiae; assay: Antifungal activity against Trichophyton mentagrophytes by broth micro-dilution technique; assay type: functional, Arthroderma benhamiae
[2] = test system: Aspergillus fumigatus; assay: Antifungal activity against Aspergillus fumigatus by broth micro-dilution technique; assay type: functional
[3] = test system: Candida parapsilosis; assay: Antifungal activity against Candida parapsilosis ATCC 22019 by broth micro-dilution technique; assay type: functional; settings: Lodderomyces parapsilosis
[4] = test system: Enterococcus faecalis; assay: Antibacterial activity against Streptococcus faecalis by broth micro-dilution technique; assay type: functional
[5] = test system: Klebsiella pneumoniae; assay: Antibacterial activity against Klebsiella pneumoniae by broth micro-dilution technique; assay type: functional
[6] = test system: Escherichia coli; assay: Antibacterial activity against Escherichia coli by broth micro-dilution technique; assay type: functional
[7] = test system: Pseudomonas aeruginosa; assay: Antibacterial activity against Pseudomonas aeruginosa by broth micro-dilution technique; assay type: functional
[8] = test system: Staphylococcus aureus; assay: Antibacterial activity against Staphylococcus aureus by broth micro-dilution technique; assay type: functional
[9] = test system: Candida albicans; assay: Antifungal activity against Candida albicans by broth micro-dilution technique; assay type: functional
[10] = test system: Cryptococcus neoformans; assay: Antifungal activity against Cryptococcus neoformans by broth micro-dilution technique; assay type: functional
[11] = test system: Sporothrix schenckii; assay: Antifungal activity against Sporothrix schenckii by broth micro-dilution technique; assay type: functional

SMILES | MIC [1] [µg/mL] | MIC [2] [µg/mL] | MIC [3] [µg/mL] | MIC [4] [µg/mL] | MIC [5] [µg/mL] | MIC [6] [µg/mL] | MIC [7] [µg/mL] | MIC [8] [µg/mL] | MIC [9] [µg/mL] | MIC [10] [µg/mL] | MIC [11] [µg/mL]
O=c1cc(-c2ccc(O)c(O)c2)oc2cc(O)cc(O)c12 [LUTEOLIN] | 50 (≈ 175 µM) | > 50 | 25 (≈ 87.3 µM) | 25 (≈ 87.3 µM) | 25 (≈ 87.3 µM) | 50 (≈ 175 µM) | 25 (≈ 87.3 µM) | 25 (≈ 87.3 µM) | > 50 | 25 (≈ 87.3 µM) | > 50
O=C(OCC1=C[C@@H](O)[C@@H]2C=CO[C@@H](O[C@H]3O[C@@H](CO)[C@H](O)[C@@H](O)[C@@H]3O)[C@H]12)c1ccc(O)cc1 | 12.5 (≈ 26.8 µM) | > 50 | > 50 | > 50 | 50 (≈ 107 µM) | > 50 | > 50 | > 50 | > 50 | 12.5 (≈ 26.8 µM) | > 50
OC(Cn1cncn1)(Cn1cncn1)c1ccc(F)cc1F [FLUCONAZOLE] | 2 (≈ 6.53 µM) | 2 (≈ 6.53 µM) | 1 (≈ 3.27 µM) | – | – | – | – | – | 0.5 (≈ 1.63 µM) | 1 (≈ 3.27 µM) | 2 (≈ 6.53 µM)
C[C@]1(O)CC[C@@H]2C(C(=O)O)=CO[C@@H](O[C@H]3O[C@@H](CO)[C@H](O)[C@@H](O)[C@@H]3OC(=O)c3ccc(O)cc3)[C@@H]21 | 6.25 (≈ 12.6 µM) | 50 (≈ 101 µM) | > 50 | > 50 | 25 (≈ 50.4 µM) | 25 (≈ 50.4 µM) | 25 (≈ 50.4 µM) | 50 (≈ 101 µM) | > 50 | 6.25 (≈ 12.6 µM) | > 50
COc1ccc(-c2oc3cc(OC)c(OC)c(O)c3c(=O)c2OC)cc1OC [ARTEMETIN] | 25 (≈ 64.4 µM) | 50 (≈ 129 µM) | 25 (≈ 64.4 µM) | > 50 | 25 (≈ 64.4 µM) | 50 (≈ 129 µM) | 50 (≈ 129 µM) | 25 (≈ 64.4 µM) | > 50 | 12.5 (≈ 32.2 µM) | > 50
COC(=O)[C@H]1O[C@@H](Oc2cc(-c3cc(=O)c4c(O)cc(O)cc4o3)ccc2O)[C@H](O)[C@@H](O)[C@@H]1O | 6.25 (≈ 13.1 µM) | > 50 | > 50 | > 50 | > 50 | > 50 | > 50 | > 50 | > 50 | 6.25 (≈ 13.1 µM) | > 50
CC1(C)S[C@@H]2[C@H](NC(=O)[C@H](N)c3ccccc3)C(=O)N2[C@H]1C(=O)O [AMPICILLIN] | – | – | – | 0.02 (≈ 0.0572 µM) | 0.09 (≈ 0.258 µM) | – | 50 (≈ 143 µM) | 0.09 (≈ 0.258 µM) | – | – | –
O=c1cc(-c2ccc(O)c(O)c2)oc2cc(O)c([C@@H]3O[C@H](CO)[C@@H](O)[C@H](O)[C@H]3O)c(O)c12 [ISOORIENTIN] | 12.5 (≈ 27.9 µM) | 50 (≈ 112 µM) | > 50 | 25 (≈ 55.8 µM) | 25 (≈ 55.8 µM) | 25 (≈ 55.8 µM) | > 50 | 25 (≈ 55.8 µM) | > 50 | 25 (≈ 55.8 µM) | > 50
